Data reported in patent publication US7763567B2, “Agrochemical compositions” (priority 2003, dated 2010).
Counter-ions that a name gives are not always drawn. Like-named read-outs stand apart in the source and are kept apart here.

How the values were obtained:
[1] = system: eight representative weed species; type: in vivo
Experimental: The bioperformance enhancement of paraquat in the presence of amines of the present invention was evaluated. An aqueous formulation of paraquat dichloride containing 0.5% by weight of amine (based on the weight of the parent amine and based on total spray volume) was applied using a moving track sprayer to eight representative weed species at 10, 20 and 40 g/ha (based on paraquat ion). The spray volume was equivalent to 200 l/ha.
Three replicates of each test were undertaken and the biological data (% activity where 0% represents no herbicidal effect and 100% represents complete kill) at 7 days after treatment is expressed in Table 4 as a mean over all species based on an average response over the combined rates. The results are compared with an equivalent formulation containing only paraquat chloride.
The bioperformance enhancement of paraquat in the presence of some amines of the present invention was evaluated. An aqueous formulation of paraquat dichloride containing 0.2% by weight of amine (based on the weight of the parent amine and based on total spray volume) was applied using a moving track sprayer to eight representative weed species at 10, 20 and 40 g/ha (based on paraquat ion). The spray volume was equivalent to 200 l/ha.
Three replicates of each test were undertaken and the biological data (% activity where 0% represents no herbicidal effect and 100% represents complete kill) at 7 days after treatment is expressed in Table 5 as a mean over all species based on an average response over the combined rates. The results are compared with an equivalent standard formulation containing paraquat chloride and 0.2% of an effective adjuvant blend

[2] = system: Sida spinosa (SIDSP); type: in vivo
Source text: (§1) TEDA was first neutralized with hydrochloric acid to form the TEDA hydrochloride. An aqueous formulation of paraquat dichloride containing 0.5% by weight of TEDA based on total spray volume was applied to test species Ipomoea hederacea (IPOHE) and Sida spinosa (SIDSP) at 10 and 30 g/ha (based on paraquat ion). The spray volume was equivalent to 200 L/ha The biological data (% activity) at 6 days after treatment is expressed in Table 1 as an average response over the combined rates and is compared with an equivalent formulation containing only paraquat chloride.
(§2) The following compositions were compared using the general procedure of Example 1. TEDA was used in the form of its hydrochloride: • 1. An aqueous formulation containing paraquat dichloride and 0.5% by weight of TEDA hydrochloride based on total spray volume; • 2. An aqueous formulation containing paraquat dichloride and 0.5% by weight based on total spray volume of a mixture of TEDA hydrochloride and the surfactant EMPIGEN BB and TEDA at a ratio of TEDA to EMPIGEN BB of 5:2. EMPIGEN BB is lauryl betaine supplied at a concentration of 30%. The proportions given above and below are based on lauryl betaine content. • 3. An aqueous formulation (comparison) containing paraquat dichloride and 0.5% by weight based on total spray volume of EMPIGEN BB • 4. An aqueous formulation containing paraquat dichloride and 0.5% by weight based on total spray volume of a mixture of TEDA hydrochloride and the surfactant AGRIMUL PG2067 and TEDA at a ratio of TEDA to AGRIMUL PG2067 of 5:2. AGRIMUL PG2067 is an alkylpolyglycoside supplied at a concentration of 70%. The proportions given above and below are based on alkylpolyglycoside content. • 5. An aqueous formulation (comparison) containing paraquat chloride and 0.5% by weight based on total spray volume of AGRIMUL PG2067.

[3] = system: Ipomoea hederacea (IPOHE); type: in vivo
Source text: as §1, §2

[4] = type: physicochemical; settings: for loading at which compatible with compositions of WO 02/076212: actual amine
Source text: It is to be understood that the term physical incompatibility in relation to adjuvants used in bipyridyl compositions indicates either gross separation of one or more components of the composition which may or may not be accompanied by a significant change in formulation rheology or bulk homogeneity. It is not necessarily essential that the composition is fully homogeneous in a strict physical sense provided that the composition is substantially homogeneous in the bulk. Thus a slight separation of a second phase may be acceptable provided that the separated phase remains fully dispersed in the bulk. […] This is obviously undesirable for a number of reasons. The term physical compatibility indicates the reverse of physical incompatibility as defined above.

[5] = Example 4, 0.5% by weight amine, paraquat 10, 20 and 40 g/ha, 200 l/ha, 7 days after treatment, mean over all species and combined rates, three replicates
[6] = Example 2, general procedure of Example 1, adjuvant 0.5% by weight of total spray volume, TEDA:surfactant 5:2
[7] = Example 3, procedure of Example 1, adjuvant 0.5% by weight of total spray volume, TEDA salts with anionic surfactants

## C1CN2CCN1CC2 [TEDA, Triethylenediamine]
[1]; [5]
  Mean Activity (%): 61%
[2]; [6]
  % Activity SIDSP: 35.8%
[2]; [7]
  % Activity SIDSP: 45.9%
[3]; [6]
  % Activity IPOHE: 64.4%
[3]; [7]
  % Activity IPOHE: 63.8%
[4]
  loading at which compatible with compositions of WO 02/076212: ≥ 60 g/L

## NCCNCCNCCN [TETA as HCl salt, triethylenetetramine, reference compound]
[1]; in vivo
  Mean Activity (%): 60%
[4]
  loading at which compatible with compositions of WO 02/076212: less than 30 g/l

## CCCCCCCCOC(=O)CC(C(=O)OCCCCCCCC)S(=O)(=O)O.[Na] (stereo not shown) [sodium dioctyl sulphosuccinate, reference compound]
[4]; about 120 g/l paraquat ion, about 80 g/l diquat ion, alginate, about 120 g/l magnesium sulphate heptahydrate
  level at which physical separation / two phases observed: below 10 g/l

## NCCN [EDA as HCl salt, ethylenediamine, reference compound]
[1]; in vivo
  Mean Activity (%): 54%

## CN(C)CCN(C)C [TMEDA as HCl salt, tetramethylethylenediamine]
[1]; [5]
  Mean Activity (%): 59%
[1]; Example 5, 0.2% by weight amine, paraquat 10, 20 and 40 g/ha, 200 l/ha, 7 days after treatment, mean over all species and combined rates, three replicates
  Mean Activity (%): 56%
[4]
  loading at which compatible with compositions of WO 02/076212: ≤ 30 g/L
